Calls of active or inactive are those of the source. The rule behind the calls is not given here.
Experiments:
Mus musculus [1] = experiment: (§1) Antiinflammatory activity in male wild type C57BL/6 mouse model of DSS-induced ulcerative colitis assessed as reduction in NLRP3 level in colon at 5 to 20 mg/kg, po administered for 10 days with subsequent treatment of DSS for 7 days followed by normal drinking water for 3 days by immunoblot analysis; format: functional, organism-based; conditions: dose 5-20 mg/kg, time 10.0 day
BMDM [2] = experiment: Inhibition of LPS/nigericin induced caspase-1 P20 release in M-CSF induced C57BL/6 mouse BMDM cells at 0.5 to 20 uM preincubated with LPS for 4 hrs followed by compound addition for 30 mins and further incubated with nigericin for 30 mins by Western blot analysis; format: functional, cell-based; conditions: dose 0.5-20 µM, time 60.0 min
THP-1 [3] = experiment: Inhibition of NLRP3-ASC interaction in LPS/nigericin induced PMA-differentiated human THP-1 cells at 5 uM preincubated with LPS for 4 hrs followed by compound addition for 30 mins and further incubated with nigericin for 30 mins by Co-immunoprecipitation analysis; format: cell-based; conditions: time 60.0 min
[4] = AUC (0 to infinity) in male C57BL/6J mouse at 5 mg/kg, iv administered as single dose and measured over 24 hrs by LC-MS/MS analysis; format: ADME, organism-based; conditions: in vivo
Mus musculus [5] = experiment: Antiinflammatory activity in male NLRP3 knockout C57BL/6 mouse model of DSS-induced ulcerative colitis assessed as reduction in IL-1beta level in plasma at 20 mg/kg, po administered for 10 days with subsequent treatment of DSS in drinking water by ELISA; format: functional, organism-based; conditions: time 10.0 day
[6] = Oral bioavailability in male C57BL/6J mouse at 5 mg/kg administered as single dose and measured over 24 hrs by LC-MS/MS analysis; format: ADME, organism-based; conditions: in vivo
THP-1 [7] = experiment: Inhibition of NF-kappaB pathway in PMA-differentiated human THP-1 cells assessed as inhibition of LPS/nigericin induced TNF-alpha production at 0.5 to 20 uM pretreated with compound followed by LPS stimulation for 4 hrs and further stimulated with nigericin by ELISA; format: cell-based; conditions: dose 0.5-20 µM
[8] = Volume of distribution in male C57BL/6J mouse at 5 mg/kg, iv administered as single dose and measured over 24 hrs by LC-MS/MS analysis; format: ADME, organism-based; conditions: in vivo
BMDM [9] = experiment: Effect on LPS/nigericin induced ASC intracellular expression in M-CSF induced C57BL/6 mouse BMDM cells at 0.5 to 20 uM preincubated with LPS for 4 hrs followed by compound addition for 30 mins and further incubated with nigericin for 30 mins by Western blot analysis; format: functional, cell-based; conditions: dose 0.5-20 µM, time 60.0 min
THP-1 [10] = experiment: Inhibition of LPS/nigericin induced IL-1beta release in PMA-differentiated human THP-1 cells at 0.5 to 20 uM preincubated with LPS for 4 hrs followed by compound addition for 30 mins and further incubated with nigericin for 30 mins by Western blot analysis; format: functional, cell-based; conditions: dose 0.5-20 µM, time 60.0 min
Mus musculus [11] = experiment: as §1, with “IL-1beta” for “NLRP3”, “immunohistochemistry” for “immunoblot”; format: functional, organism-based; conditions: dose 5-20 mg/kg, time 10.0 day
THP-1 [12] = experiment: Effect on LPS/nigericin induced intracellular NLRP3 protein expression in PMA-differentiated human THP-1 cell lysate at 0.5 to 20 uM pretreated with compound followed by LPS stimulation for 4 hrs and further stimulated with nigericin by Western blot analysis; format: functional, subcellular; conditions: dose 0.5-20 µM
THP-1 [13] = experiment: Effect on LPS/nigericin induced intracellular pro-caspase-1 protein expression in PMA-differentiated human THP-1 cell lysate at 0.5 to 20 uM pretreated with compound followed by LPS stimulation for 4 hrs and further stimulated with nigericin by Western blot analysis; format: functional, subcellular; conditions: dose 0.5-20 µM
BMDM [14] = experiment: Inhibition of LPS/nigericin induced IL-1beta release in M-CSF induced C57BL/6 mouse BMDM cells at 0.5 to 20 uM preincubated with LPS for 4 hrs followed by compound addition for 30 mins and further incubated with nigericin for 30 mins by Western blot analysis; format: functional, cell-based; conditions: dose 0.5-20 µM, time 60.0 min
THP-1 [15] = experiment: Effect on LPS/nigericin induced intracellular pro-IL-1beta protein expression in PMA-differentiated human THP-1 cell lysate at 0.5 to 20 uM pretreated with compound followed by LPS stimulation for 4 hrs and further stimulated with nigericin by Western blot analysis; format: functional, subcellular; conditions: dose 0.5-20 µM
Mus musculus [16] = experiment: Antiinflammatory activity in male NLRP3 knockout C57BL/6 mouse model of DSS-induced ulcerative colitis assessed as reduction in IL-1beta level in colon at 20 mg/kg, po administered for 10 days with subsequent treatment of DSS in drinking water by immunohistochemistry analysis; format: functional, organism-based; conditions: time 10.0 day
[17] = AUC (0 to infinity) in male C57BL/6J mouse at 5 mg/kg, po administered as single dose and measured over 24 hrs by LC-MS/MS analysis; format: ADME, organism-based; conditions: in vivo
THP-1 [18] = experiment: Effect on LPS/nigericin induced NLRP3 intracellular expression in PMA-differentiated human THP-1 cells at 0.5 to 20 uM preincubated with LPS for 4 hrs followed by compound addition for 30 mins and further incubated with nigericin for 30 mins by Western blot analysis; format: functional, cell-based; conditions: dose 0.5-20 µM, time 60.0 min
THP-1 [19] = experiment: Effect on LPS/nigericin induced IL-1beta mRNA expression in PMA-differentiated human THP-1 cells at 1 to 20 uM pretreated with compound followed by LPS stimulation for 4 hrs and further stimulated with nigericin by RT-PCR analysis; format: functional, cell-based; conditions: dose 1-20 µM
Mus musculus [20] = experiment: as §1, with “crypt loss” for “NLRP3 level in colon”, “H and E staining based” for “immunoblot”; format: functional, organism-based; conditions: dose 5-20 mg/kg, time 10.0 day
Mus musculus [21] = experiment: Antiinflammatory activity in male wild type C57BL/6 mouse model of DSS-induced ulcerative colitis assessed as reduction in colon shortening at 5 to 20 mg/kg, po administered for 10 days with subsequent treatment of DSS for 7 days followed by normal drinking water for 3 days; format: functional, organism-based; conditions: dose 5-20 mg/kg, time 10.0 day
Mus musculus [22] = experiment: as §1, with “IL-1beta” for “NLRP3”; format: functional, organism-based; conditions: dose 5-20 mg/kg, time 10.0 day
THP-1 [23] = experiment: Inhibition of LPS/nigericin induced caspase-1 P20 release in PMA-differentiated human THP-1 cells at 0.5 to 20 uM preincubated with LPS for 4 hrs followed by compound addition for 30 mins and further incubated with nigericin for 30 mins by Western blot analysis; format: functional, cell-based; conditions: dose 0.5-20 µM, time 60.0 min
BMDM [24] = experiment: Cytotoxicity against C57BL/6 mouse BMDM cells assessed as reduction in cell viability at 0.5 to 100 uM measured after 24 hrs by MTT assay; format: toxicity, cell-based; conditions: dose 0.5-100 µM
Mus musculus [25] = experiment: Antiinflammatory activity in male NLRP3 knockout C57BL/6 mouse model of DSS-induced ulcerative colitis assessed as reduction in daily disease activity index at 20 mg/kg, po administered for 10 days with subsequent treatment of DSS in drinking water; format: functional, organism-based; conditions: time 10.0 day
[26] = Cmax in male C57BL/6J mouse at 5 mg/kg, po administered as single dose and measured over 24 hrs by LC-MS/MS analysis; format: ADME, organism-based; conditions: in vivo
Mus musculus [27] = experiment: Antiinflammatory activity in male wild type C57BL/6 mouse model of DSS-induced ulcerative colitis assessed as reduction in body weight loss at 5 to 20 mg/kg, po administered for 10 days with subsequent treatment of DSS for 7 days followed by normal drinking water for 3 days; format: functional, organism-based; conditions: dose 5-20 mg/kg, time 10.0 day
THP-1 [28] = experiment: Effect on LPS/nigericin induced intracellular ASC expression in PMA-differentiated human THP-1 cells at 0.5 to 20 uM preincubated with LPS for 4 hrs followed by compound addition for 30 mins and further incubated with nigericin for 30 mins by Western blot analysis; format: functional, cell-based; conditions: dose 0.5-20 µM, time 60.0 min

AUC(0-inf) [4]: 2230 ng·h/mL
bioavailability [6]: 16.7%
Vd [8]: 5.76 L/kg
AUC(0-inf) [17]: 371 ng·h/mL
Cmax [26]: 358 ng/mL
SMILES: COc1ccccc1CCNC(=O)/C(=C/c1ccc(Br)cc1)CS(=O)(=O)CCC#N
Activity (Mus musculus [1]): Active
inhibition (BMDM [2]): Active
inhibition (THP-1 [3]): Active
Activity (Mus musculus [5]): inactive
inhibition (THP-1 [7]): inactive
Activity (BMDM [9]): inactive
inhibition (THP-1 [10]): Active
Activity (Mus musculus [11]): Active
Activity (THP-1 [12]): inactive
Activity (THP-1 [13]): inactive
inhibition (BMDM [14]): Active
Activity (THP-1 [15]): inactive
Activity (Mus musculus [16]): inactive
Activity (THP-1 [18]): inactive
Activity (THP-1 [19]): inactive
Activity (Mus musculus [20]): Active
Activity (Mus musculus [21]): Active
Activity (Mus musculus [22]): Active
inhibition (THP-1 [23]): Active
Activity (BMDM [24]): Non-Toxic
Activity (Mus musculus [25]): inactive
Activity (Mus musculus [27]): Active
Activity (THP-1 [28]): inactive
